Consider 17 compounds from patent US12559492B2, “BRAF degraders” (C4 Therapeutics, Inc., priority 2020, dated 2026).

The target in this experiment is BRAF^V600E protein (Homo sapiens, UniProt P15056, V600E). The experiment is described as follows: HiBiT cellular BRAF V600E degradation assay. In kind it is cell-based. To be noted: 24 h incubation; for DC50: A375.10 cells (HiBiT tag knocked in at N-terminal of BRAF V600E), concentration at which 50% of total cellular BRAF V600E is degraded; for Emax: A375.10 cells, Emax = amount of residual protein remaining in the cell after compound treatment, read-out: HiBit 24 h Emax.
Chain of BRAF^V600E protein (P15056 whole entry V600E): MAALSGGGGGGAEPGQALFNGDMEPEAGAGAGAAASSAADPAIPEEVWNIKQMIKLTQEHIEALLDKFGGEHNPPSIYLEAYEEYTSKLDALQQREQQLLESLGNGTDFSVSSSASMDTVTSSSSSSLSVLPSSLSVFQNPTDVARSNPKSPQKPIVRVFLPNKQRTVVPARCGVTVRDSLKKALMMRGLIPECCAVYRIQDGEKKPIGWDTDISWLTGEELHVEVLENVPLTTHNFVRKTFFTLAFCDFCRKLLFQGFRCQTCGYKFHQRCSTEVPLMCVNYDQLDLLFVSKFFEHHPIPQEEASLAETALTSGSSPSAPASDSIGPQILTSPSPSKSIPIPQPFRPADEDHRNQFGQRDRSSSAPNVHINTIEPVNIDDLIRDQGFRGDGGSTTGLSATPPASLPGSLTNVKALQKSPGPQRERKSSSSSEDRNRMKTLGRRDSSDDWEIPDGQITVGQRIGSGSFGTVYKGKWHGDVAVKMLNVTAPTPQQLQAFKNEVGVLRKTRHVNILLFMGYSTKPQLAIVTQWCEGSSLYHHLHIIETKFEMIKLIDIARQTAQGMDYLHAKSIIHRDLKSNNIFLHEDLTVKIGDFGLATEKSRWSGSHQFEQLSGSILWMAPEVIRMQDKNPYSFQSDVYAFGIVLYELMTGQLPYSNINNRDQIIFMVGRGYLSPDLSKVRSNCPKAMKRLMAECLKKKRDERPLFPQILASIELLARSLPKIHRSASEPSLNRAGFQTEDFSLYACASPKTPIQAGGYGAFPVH

For `CCC(C)S(=O)(=O)Nc1ccc(F)c(C(=O)c2c[nH]c3ncc(-c4ccc(N5CCN(C(=O)CN6CCC(c7ccc(NC8CCC(=O)NC8=O)cc7)CC6)CC5)nc4)cc23)c1F` (stereo not shown) [Example A29, N-[3-[5-[6-[4-[2-[4-[4-[(2,6-Dioxopiperidin-3-yl)amino]phenyl]piperidin-1-yl]acetyl]piperazin-1-yl]pyridin-3-yl]-1H-pyrrolo[2,3-b]pyridine-3-carbonyl]-2,4-difluorophenyl]butane-2-sulfonamide], the DC50 (in general, the concentration giving 50% degradation) was 3.05 nM and the maximum response (Emax) (in general, the size of the effect at its maximum, as opposed to the concentration needed) is 10.9%.

With `CCN(C)S(=O)(=O)Nc1ccc(F)c(C(=O)c2c[nH]c3ncc(-c4ccc(CN5CCN(C(=O)CN6CCC(c7ccc(NC8CCC(=O)NC8=O)cc7)CC6)CC5)cc4)cc23)c1F` (stereo not shown) [Example A23, 5-[4-[[4-[2-[4-[4-[(2,6-Dioxopiperidin-3-yl)amino]phenyl]piperidin-1-yl]acetyl]piperazin-1-yl]methyl]phenyl]-3-[3-[[ethyl(methyl)sulfamoyl]amino]-2,6-difluorobenzoyl]-1H-pyrrolo[2,3-b]pyridine], the 50% degradation concentration (DC50) turned out to be 19 nM and the Emax came to 13%.

Turning to `CC(C)S(=O)(=O)Nc1ccc(F)c(C(=O)c2c[nH]c3ncc(-c4ccc(N5CCN(C(=O)CN6CCC(c7ccc(N8CCC(=O)NC8=O)cc7)CC6)CC5)nc4)cc23)c1F` [Example A108, N-[3-[5-[6-[4-[2-[4-[4-(2,4-Dioxo-1,3-diazinan-1-yl)phenyl]piperidin-1-yl]acetyl]piperazin-1-yl]pyridin-3-yl]-1H-pyrrolo[2,3-b]pyridine-3-carbonyl]-2,4-difluorophenyl]propane-2-sulfonamide], half-maximal degradation (DC50) was put at 14 nM and the Emax came out at 8%.

For the compound `CCN(C)S(=O)(=O)Nc1ccc(F)c(C(=O)c2c[nH]c3ncc(-c4ccc(N5CCN(C(=O)CC6(O)CCN(c7ccc(NC8CCC(=O)NC8=O)cc7F)C6)CC5)cc4)cc23)c1F` (stereo not shown) [Example 87, 5-[4-[4-[2-[1-[4-[(2,6-dioxo-3-piperidyl)amino]-2-fluoro-phenyl]-3-hydroxy-pyrrolidin-3-yl]acetyl]piperazin-1-yl]phenyl]-3-[3-[[ethyl(methyl)sulfamoyl]amino]-2,6-difluoro-benzoyl]-1H-pyrrolo[2,3-b]pyridine], half-maximal degradation (DC50) was put at 13.3 nM and the Emax is 9.64%.

Regarding `CCN(C)S(=O)(=O)Nc1ccc(F)c(C(=O)c2c[nH]c3ncc(-c4ccc(N5CCN(CC(=O)N6CCC(c7ccc(OC8CCC(=O)NC8=O)cc7)CC6)CC5)nc4)cc23)c1F` (stereo not shown) [Example A3, 5-[6-[4-[2-[4-[4-(2,6-Dioxopiperidin-3-yl)oxyphenyl]piperidin-1-yl]-2-oxoethyl]piperazin-1-yl]pyridin-3-yl]-3-[3-[[ethyl(methyl)sulfamoyl]amino]-2,6-difluorobenzoyl]-1H-pyrrolo[2,3-b]pyridine], it took 46 nM to reach half-maximal degradation (DC50) and the Emax turned out to be 19%.

As to `CCN(C)S(=O)(=O)Nc1ccc(F)c(C(=O)c2c[nH]c3ncc(-c4ccc(N5CCN(C(=O)CC6(O)CCN(c7cc(Cl)c(N8CCC(=O)NC8=O)cc7Cl)CC6)CC5)nc4)cc23)c1F` [Example 218, 5-[6-[4-[2-[1-[2,5-dichloro-4-(2,4-dioxohexahydropyrimidin-1-yl)phenyl]-4-hydroxy-4-piperidyl]acetyl]piperazin-1-yl]-3-pyridyl]-3-[3-[[ethyl(methyl)sulfamoyl]amino]-2,6-difluoro-benzoyl]-1H-pyrrolo[2,3-b]pyridine], it took 4.1 nM to reach half-maximal degradation (DC50) and the Emax amounted to 6.24%.

For `CCCS(=O)(=O)Nc1ccc(F)c(C(=O)c2c[nH]c3ncc(-c4cnc(N5CCN(C(=O)CN6CCC(c7ccc(NC8CCC(=O)NC8=O)cc7)CC6)CC5)nc4)cc23)c1F` (stereo not shown) [Example 1, N-[3-[5-[2-[4-[2-[4-[4-[(2,6-dioxo-3-piperidyl)amino]phenyl]-1-piperidyl]acetyl]piperazin-1-yl]pyrimidin-5-yl]-1H-pyrrolo[2,3-b]pyridine-3-carbonyl]-2,4-difluoro-phenyl]propane-1-sulfonamide], the DC50 is 0.79 nM and the maximal effect (Emax) was found to be 7.81%.

For `CCN(C)S(=O)(=O)Nc1ccc(F)c(C(=O)c2c[nH]c3ncc(C#CC4CCN(C(=O)CN5CCC(c6ccc(NC7CCC(=O)NC7=O)cc6)CC5)CC4)cc23)c1F` (stereo not shown) [Example A43, 5-[2-[1-[2-[4-[4-[(2,6-Dioxopiperidin-3-yl)amino]phenyl]piperidin-1-yl]acetyl]piperidin-4-yl]ethynyl]-3-[3-[[ethyl(methyl)sulfamoyl]amino]-2,6-difluorobenzoyl]-1H-pyrrolo[2,3-b]pyridine], the DC50 was found to be 57 nM and the maximal effect (Emax) stood at 32%.

Consider `CCN(C)S(=O)(=O)Nc1ccc(F)c(C(=O)c2c[nH]c3ncc(-c4cnc(N5CCN(C(=O)CN6CCC(c7ccc(N[C@H]8CCC(=O)NC8=O)cc7)CC6)CC5)nc4)cc23)c1F` [Example 25, 5-[2-[4-[2-[4-[4-[[(3S)-2,6-dioxo-3-piperidyl]amino]phenyl]-1-piperidyl]acetyl]piperazin-1-yl]pyrimidin-5-yl]-3-[3-[[ethyl(methyl)sulfamoyl]amino]-2,6-difluoro-benzoyl]-1H-pyrrolo[2,3-b]pyridine], for which the 50% degradation concentration (DC50) was determined as 3.63 nM and the Emax was found to be 6.36%.

Regarding `CCN(C)S(=O)(=O)Nc1cccc(C(=O)c2c[nH]c3ncc(-c4cnc(N5CCN(C(=O)CC6(O)CCN(c7ccc(NC8CCC(=O)NC8=O)cc7)CC6)CC5)nc4)cc23)c1F` (stereo not shown) [Example 99, 5-[2-[4-[2-[1-[4-[(2,6-dioxo-3-piperidyl)amino]phenyl]-4-hydroxy-4-piperidyl]acetyl]piperazin-1-yl]pyrimidin-5-yl]-3-[3-[[ethyl(methyl)sulfamoyl]amino]-2-fluoro-benzoyl]-1H-pyrrolo[2,3-b]pyridine], the DC50 was found to be 9.55 nM and the maximum response (Emax) is 13.2%.

Consider `CCN(C)S(=O)(=O)Nc1cccc(C(=O)c2c[nH]c3ncc(-c4ccc(N5CCN(C(=O)CN6CCC(c7ccc(OC8CCC(=O)NC8=O)cc7)CC6)CC5)nc4)cc23)c1F` (stereo not shown) [Example 108, 5-[6-[4-[2-[4-[4-[(2,6-dioxo-3-piperidyl)oxy]phenyl]-1-piperidyl]acetyl]piperazin-1-yl]-3-pyridyl]-3-[3-[[ethyl(methyl)sulfamoyl]amino]-2-fluoro-benzoyl]-1H-pyrrolo[2,3-b]pyridine], for which the DC50 was determined as 5.6 nM and the maximal effect (Emax) is 11.4%.

As for `CCN(C)S(=O)(=O)Nc1ccc(F)c(C(=O)c2c[nH]c3ncc(-c4ccc(CN5CCN(CC(=O)N6CCC(c7ccc(NC8CCC(=O)NC8=O)cc7)CC6)CC5)cc4)cc23)c1F` (stereo not shown) [Example 94, 5-[4-[[4-[2-[4-[4-[(2,6-dioxo-3-piperidyl)amino]phenyl]-1-piperidyl]-2-oxo-ethyl]piperazin-1-yl]methyl]phenyl]-3-[3-[[ethyl(methyl)sulfamoyl]amino]-2,6-difluoro-benzoyl]-1H-pyrrolo[2,3-b]pyridine], half-maximal degradation (DC50) was put at 21.2 nM and the Emax worked out at 12.8%.

On to `CCN(C)S(=O)(=O)Nc1ccc(F)c(C(=O)c2c[nH]c3ncc(-c4cnc(N5CCN(C(=O)CC6(O)CCN(c7ccc(NC8CCC(=O)NC8=O)cc7F)CC6)CC5)cn4)cc23)c1F` (stereo not shown) [Example 187, 5-[5-[4-[2-[1-[4-[(2,6-dioxo-3-piperidyl)amino]-2-fluoro-phenyl]-4-hydroxy-4-piperidyl]acetyl]piperazin-1-yl]pyrazin-2-yl]-3-[3-[[ethyl(methyl)sulfamoyl]amino]-2,6-difluoro-benzoyl]-1H-pyrrolo[2,3-b]pyridine], for which the half-maximal degradation concentration (DC50) was 3.6 nM and the Emax is 7.8%.

In the case of `CCN(C)S(=O)(=O)Nc1ccc(F)c(C(=O)c2c[nH]c3ncc(-c4cnc(N5CCC(NC(=O)N6CCC(c7ccc(NC8CCC(=O)NC8=O)cn7)CC6)CC5)nc4)cc23)c1F` (stereo not shown) [Example A40, 4-[5-[(2,6-Dioxopiperidin-3-yl)amino]pyridin-2-yl]-N-[1-[5-[3-[3-[[ethyl(methyl)sulfamoyl]amino]-2,6-difluorobenzoyl]-1H-pyrrolo[2,3-b]pyridin-5-yl]pyrimidin-2-yl]piperidin-4-yl]piperidine-1-carboxamide;formic acid], half-maximal degradation (DC50) was put at 8 nM and the maximal effect (Emax) worked out at 17%.

As to `CCN(C)S(=O)(=O)Nc1ccc(F)c(C(=O)c2c[nH]c3ncc(-c4ccc(CN5CCN(C(=O)N6CCN(c7ccc(OC8CCC(=O)NC8=O)cc7)CC6)CC5)cc4)cc23)c1F` (stereo not shown) [Example A4, 5-[4-[[4-[4-[4-(2,6-Dioxopiperidin-3-yl)oxyphenyl]piperazine-1-carbonyl]piperazin-1-yl]methyl]phenyl]-3-[3-[[ethyl(methyl)sulfamoyl]amino]-2,6-difluorobenzoyl]-1H-pyrrolo[2,3-b]pyridine], half-maximal degradation (DC50) was put at 83 nM and the maximal response (Emax) amounted to 31%.

On to `CCN(C)S(=O)(=O)Nc1ccc(F)c(C(=O)c2c[nH]c3ncc(-c4cnc(N5CCC(C(=O)N6CCC(c7ccc(NC8CCC(=O)NC8=O)cc7)CC6)CC5)nc4)cc23)c1F` (stereo not shown) [Example 127, 5-[2-[4-[4-[4-[(2,6-dioxo-3-piperidyl)amino]phenyl]piperidine-1-carbonyl]-1-piperidyl]pyrimidin-5-yl]-3-[3-[[ethyl(methyl)sulfamoyl]amino]-2,6-difluoro-benzoyl]-1H-pyrrolo[2,3-b]pyridine], for which the DC50 is 13.2 nM and the Emax worked out at 7.62%.

For `CCN(C)S(=O)(=O)Nc1ccc(F)c(C(=O)c2c[nH]c3ncc(-c4cnc(N5CCN(CCN6CCC(c7ccc(NC8CCC(=O)NC8=O)cc7)CC6=O)CC5)nc4)cc23)c1F` (stereo not shown) [Example 146, 5-[2-[4-[2-[4-[4-[(2,6-dioxo-3-piperidyl)amino]phenyl]-2-oxo-1-piperidyl]ethyl]piperazin-1-yl]pyrimidin-5-yl]-3-[3-[[ethyl(methyl)sulfamoyl]amino]-2,6-difluoro-benzoyl]-1H-pyrrolo[2,3-b]pyridine], half-maximal degradation (DC50) was put at 14.4 nM and the Emax was found to be 9.32%.
